Measured values: PubChem BioAssay (NCI)
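These data come from cells grown in 96-well plates and exposed to compound for 48 hours at five concentrations. GI50 marks 50% less growth. TGI denotes the concentration required for complete inhibition of growth.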

Key:
Assay in all cases: growth of human tumour cells (NCI), 48 h
[1] = tested on: UO-31 renal
[2] = tested on: NCI-H522 lung
[3] = tested on: OVCAR-4 ovarian
[4] = tested on: OVCAR-8 ovarian
[5] = tested on: SNB-75 CNS
[6] = tested on: HL-60(TB) leukemia
[7] = tested on: COLO 205 colon
[8] = tested on: SF-268 CNS
[9] = tested on: M14 melanoma
[10] = tested on: HS 578T breast
[11] = tested on: SK-OV-3 ovarian
[12] = tested on: MCF7 breast
[13] = tested on: NCI-H23 lung
[14] = tested on: HOP-62 NSCLC
[15] = tested on: BT-549 breast
[16] = tested on: HOP-92 NSCLC
[17] = tested on: MDA-MB-231 breast
[18] = tested on: NCI-H460 lung
[19] = tested on: KM12 colon
[20] = tested on: A498 renal
[21] = tested on: OVCAR-5 ovarian
[22] = tested on: RXF 393 renal
[23] = tested on: SK-MEL-28 melanoma
[24] = tested on: RPMI-8226 leukemia
[25] = tested on: K-562 leukemia
[26] = tested on: SK-MEL-5 melanoma
[27] = tested on: ACHN renal
[28] = tested on: 786-0 renal
[29] = tested on: HCC-2998 colon
[30] = tested on: TK-10 renal
[31] = tested on: PC-3 prostate
[32] = tested on: NCI-H226 lung
[33] = tested on: SF-539 CNS
[34] = tested on: UACC-62 melanoma
[35] = tested on: MALME-3M melanoma
[36] = tested on: HT29 colon
[37] = tested on: T-47D breast
[38] = tested on: A549 NSCLC
[39] = tested on: SK-MEL-2 melanoma
[40] = tested on: CCRF-CEM leukemia
[41] = tested on: SW-620 colon
[42] = tested on: MDA-MB-435
[43] = tested on: NCI/ADR-RES ovarian
[44] = tested on: HCT-116 colon
[45] = tested on: SF-295 CNS
[46] = tested on: SR leukemia
[47] = tested on: LOX IMVI melanoma
[48] = tested on: DU-145 prostate
[49] = tested on: SNB-19 CNS
[50] = tested on: CAKI-1 renal
[51] = tested on: HCT-15 colon
[52] = tested on: OVCAR-3 ovarian
[53] = tested on: UACC-257 melanoma
[54] = tested on: EKVX NSCLC
[55] = tested on: U251 CNS
[56] = tested on: IGROV1 ovarian
[57] = tested on: SN12C renal
[58] = tested on: MOLT-4 leukemia

## O=C(Cn1ccnc1[N+](=O)[O-])NCCO
[1]
  TGI: > 100 µM
[2]
  TGI: > 100 µM
[3]
  TGI: > 100 µM
[4]
  TGI: > 100 µM
[5]
  TGI: > 100 µM
[6]
  TGI: > 100 µM
[7]
  TGI: > 100 µM
[8]
  TGI: > 100 µM
[9]
  TGI: > 100 µM
[10]
  TGI: > 100 µM
[11]
  TGI: > 100 µM
[12]
  TGI: > 100 µM
[13]
  TGI: > 100 µM
[14]
  TGI: > 100 µM
[15]
  TGI: > 100 µM
[16]
  TGI: > 100 µM
[17]
  TGI: > 100 µM
[18]
  TGI: > 100 µM
[19]
  TGI: > 100 µM
[20]
  TGI: > 100 µM
[21]
  TGI: > 100 µM
[22]
  TGI: > 100 µM
[23]
  TGI: > 100 µM
[24]
  TGI: > 100 µM
[25]
  TGI: > 100 µM
[26]
  TGI: > 100 µM
[27]
  TGI: > 100 µM
[28]
  TGI: > 100 µM
[29]
  TGI: > 100 µM
[30]
  TGI: > 100 µM
[31]
  TGI: > 100 µM
[32]
  TGI: > 100 µM
[33]
  TGI: > 100 µM
[34]
  TGI: > 100 µM
[35]
  TGI: > 100 µM
[36]
  TGI: > 100 µM
[37]
  TGI: > 100 µM
[38]
  TGI: > 100 µM
[39]
  TGI: > 100 µM
[40]
  TGI: > 100 µM
[41]
  TGI: > 100 µM
[42]
  TGI: > 100 µM
[43]
  TGI: > 100 µM
[44]
  TGI: > 100 µM
[45]
  TGI: > 100 µM
[46]
  TGI: > 100 µM
[47]
  TGI: > 100 µM
[48]
  TGI: > 100 µM
[49]
  TGI: > 100 µM
[50]
  TGI: > 100 µM
[51]
  TGI: > 100 µM
[52]
  TGI: > 100 µM
[53]
  TGI: > 100 µM
[54]
  TGI: > 100 µM
[55]
  TGI: > 100 µM
[56]
  TGI: > 100 µM
[57]
  TGI: > 100 µM

## O=c1ccc2nc(-c3ccccc3)nn(-c3ccccc3)c-2c1
[1]
  GI50: 0.512 µM
  TGI: 0.992 µM
[2]
  GI50: 0.462 µM
  TGI: 0.918 µM
[3]
  GI50: 1.5 µM
  TGI: 2.85 µM
[4]
  GI50: 2.21 µM
  TGI: 5.59 µM
[5]
  GI50: 4.83 µM
  TGI: 11.3 µM
[6]
  GI50: 0.362 µM
  TGI: 1.24 µM
[7]
  GI50: 0.589 µM
  TGI: 1.8 µM
[8]
  GI50: 3.48 µM
  TGI: 13.5 µM
[9]
  GI50: 1.67 µM
  TGI: 3.27 µM
[10]
  GI50: 2.65 µM
  TGI: 8.47 µM
[11]
  GI50: 13.3 µM
  TGI: 26.6 µM
[12]
  GI50: 1.11 µM
  TGI: 2.74 µM
[13]
  GI50: 2.26 µM
  TGI: 5.6 µM
[14]
  GI50: 5.34 µM
  TGI: 26.1 µM
[15]
  GI50: 2.19 µM
  TGI: 4.43 µM
[16]
  GI50: 1.5 µM
  TGI: 2.93 µM
[17]
  GI50: 1.88 µM
  TGI: 3.84 µM
[18]
  GI50: 6.63 µM
  TGI: 18.3 µM
[19]
  GI50: 16.4 µM
  TGI: 37.5 µM
[20]
  GI50: 18.1 µM
  TGI: 33.4 µM
[21]
  GI50: 2.6 µM
  TGI: 7.54 µM
[22]
  GI50: 1.67 µM
  TGI: 3.06 µM
[23]
  GI50: 1.63 µM
  TGI: 3.11 µM
[24]
  GI50: 2.02 µM
  TGI: 5.32 µM
[25]
  GI50: 0.353 µM
  TGI: 1.12 µM
[26]
  GI50: 3.71 µM
  TGI: 16.3 µM
[27]
  GI50: 0.47 µM
  TGI: 1.44 µM
[28]
  GI50: 1.84 µM
  TGI: 3.36 µM
[29]
  GI50: 5.13 µM
  TGI: 12.3 µM
[30]
  GI50: 1.39 µM
  TGI: 2.7 µM
[31]
  GI50: 2.14 µM
  TGI: 5.71 µM
[32]
  GI50: 2 µM
  TGI: 4.21 µM
[33]
  GI50: 1.92 µM
  TGI: 3.76 µM
[34]
  GI50: 1.84 µM
  TGI: 4.13 µM
[35]
  GI50: 0.479 µM
  TGI: 1.67 µM
[36]
  GI50: 1.8 µM
  TGI: 3.45 µM
[37]
  GI50: 0.485 µM
  TGI: 1.26 µM
[38]
  GI50: 9.26 µM
  TGI: 36.7 µM
[39]
  GI50: 2.28 µM
  TGI: 4.45 µM
[40]
  GI50: 0.274 µM
  TGI: 1.23 µM
[41]
  GI50: 1.65 µM
  TGI: 3.53 µM
[42]
  GI50: 1.85 µM
  TGI: 4.17 µM
[43]
  GI50: 8.11 µM
  TGI: 48.4 µM
[44]
  GI50: 0.79 µM
  TGI: 2.08 µM
[58]
  GI50: 0.546 µM
  TGI: 1.97 µM
[45]
  GI50: 13 µM
  TGI: 32.1 µM
[46]
  GI50: 0.309 µM
  TGI: 1.52 µM
[47]
  GI50: 2.08 µM
  TGI: 4.27 µM
[48]
  GI50: 1.92 µM
  TGI: 3.37 µM
[49]
  GI50: 16.9 µM
  TGI: 41.1 µM
[50]
  GI50: 1.5 µM
  TGI: 2.89 µM
[51]
  GI50: 0.775 µM
  TGI: 2.43 µM
[52]
  GI50: 1.01 µM
  TGI: 2.34 µM
[53]
  GI50: 1.56 µM
  TGI: 2.94 µM
[55]
  GI50: 5.78 µM
  TGI: 20.4 µM
[56]
  GI50: 1.42 µM
  TGI: 3.47 µM
[57]
  GI50: 1.77 µM
  TGI: 3.53 µM
